4 molecules from patent publication US20220356147A1, “COMPOUNDS AND METHODS FOR POTENTIATING COLISTIN ACTIVITY” (University of Notre Dame du Lac, priority 2019, published 2022) can be followed below.

The subject of series [1] is A. baumannii 4106 (AB4106). Description: Broth microdilution, colistin potentiation. Type of series: cell-based. The procedure, abridged:
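AB4106 (1.04×10^6 CFU/mL) and KPB9 (1.96×10^6 CFU/mL) cultured 4–6 h, diluted in CAMHB, pre-dosed with compound, then colistin serially 2-fold diluted; compound-free and compound-alone controls included. Incubated stationary at 37° C. MIC = lowest colistin concentration giving 90% growth inhibition versus untreated wells.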
(In broth dilution the organism is exposed to a series of concentrations in liquid medium.)

Series [2] has as its system AB 4106. Description: Broth microdilution, standalone MIC of compound. Format: cell-based, A. baumannii. Conditions: read-out: MIC of compound alone, AB 4106. The procedure, abridged:
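Bacteria grown 4–6 h in CAMHB, subcultured to 1.04×10^6 CFU/mL, then exposed to twofold serial dilutions of compound in CAMHB and incubated stationary at 37 C. MIC taken as lowest concentration giving 90% growth inhibition versus untreated wells.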

The next series relates to 4T1 cells. Description: Cell line toxicity (MTT). Format: cell-based. Conditions: for no measurable toxicity up to: mouse, 18 h. As for the experimental part: Cell line Toxicity: 4T1 cells (ATCC Manassas, Va.) were plated at a density of 1×10^4 cells/well in 96-well plates in Roswell Park Memorial Institute Media 1640 (RPMI)
(Gibco, Gaithersburg, MD) supplemented with 10% Fetal Bovine Serum (Gibco), 2 mM GlutaMAX (Gibco) and 50 μM 2-mercaptoethanol (Sigma Aldrich, St. Louis, Mo.) and incubated at 37 C under a 5% CO2 atmosphere in the dark for 18 h. Cell cultures were treated with serial dilutions of compounds in the presence or absence of 1 μg/mL colistin (3 replicates per condition) and incubated for an additional 18 hours. The following control conditions were used: media only (blank), 1% Triton X100 (0% cell viability), 0.5% DMSO (100% cell viability). Each condition was then treated with 10% volume of a 5 mg/mL solution of 3-(4,5-dimethylthiazol-2-yl)-2,5-diphenyltetrazolium bromide (MTT) (Sigma Aldrich) in sterile filtered 1X phosphate buffered saline (PBS) and incubated for 2 h. at 37 C in 5% CO2, after which the media was aspirated and the resulting formazan crystals were resuspended in 100 μL acidified (4 mM HCl) isopropanol. The 96-well plate was then read at 540 nm on a FLUOstar Optima (BMG Labtech Cary, NC) microplate reader. Cell viability was calculated as a percentage using the two previously mentioned controls.

Series [3] relates to AB 4106. Description: Time-kill curves with colistin. Format: cell-based, A. baumannii. The settings on record: 5 μM compound + 0.5, 4 or 32 μg/mL colistin, FIG. 1. As for the experimental part: (§1) Time—kill Curves: Strains were cultured overnight in CAMHB and subcultured to 1.04×10^6 CFU/mL for AB 4106 and 1.96×10^6 CFU/mL for KP B9 in fresh CAMHB. The subculture was then transferred to culture tubes in 3 mL aliquots, which were dosed with adjuvant, colistin, or adjuvant plus colistin. One aliquot was not dosed to serve as a control. All samples were then incubated at 37 C with shaking. At 2, 4, 6, 8, and 24-hour time points, 100 μL was taken from each sample and ten-fold diluted in CAMHB up to 7 times. 100 μL of diluted culture was plated on LB (Lennox) agar and incubated at 37 C overnight. The total number of bacterial colonies on each plate was determined using a SphereFlash colony counter (NEUTEC Group Inc.).

Another series relates to KP B9. Description: Time-kill curves with colistin. Format: cell-based, K. pneumoniae. Conditions: 5 μM compound + 0.5, 4 or 32 μg/mL colistin, FIG. 2. As for the experimental part:
as §1

The next series relates to K. pneumoniae B9 (KPB9). Description: Broth microdilution, colistin potentiation. Type of series: cell-based. Conditions: compound at 500 nM. As for the experimental part: Broth microdilution method for measurement of colistin potentiation: Bacteria were cultured for 4 to 6 hours in CAMHB and diluted to 1.04×10^6 CFU/mL for AB 4106 and 1.96×10^6 CFU/mL for KP B9 in fresh CAMHB. To aliquots (4 mL) was added compound from stock solutions in DMSO. One aliquot was not dosed to allow measurement of the colistin MIC in the absence of compound. A 1 mL aliquot of each sample was dosed with colistin, and from this 200 μL was dispensed into the first row of a 96-well microtiter plate in which all but the final row of subsequent wells was prefilled with 100 μL of the corresponding compound dosed bacterial suspension The final row was filled with media to act as a sterility control and blank. Row one wells were mixed 6-7 times, then, 100 μL was withdrawn and transferred to row two. Row two wells were mixed 6-7 times followed by a 100 μL transfer from row two to row three. This procedure was used to serially dilute the rest of the rows of the microtiter plate, excluding the last prefilled row, which was used to measure growth in the presence of compound alone. Plates were then sealed with GLAD
Press'n Seal and incubated under stationary conditions at 37° C. […] MIC values were determined as the minimum concentration required to achieve 90% growth inhibition compared to growth in untreated wells.

A further series has as its system AB 3941. Description: Colistin potentiation, colistin-resistant isolate panel. Format: cell-based, A. baumannii. Conditions: compound at 5 μM.
A further series concerns AB 3942. Described as above. Type of series: cell-based, A. baumannii. Conditions: compound at 5 μM.
The next series deals with AB 4112. The series is described as above. Conditions: compound at 5 μM. Format: cell-based, A. baumannii.
Another series relates to AB 4119. Described as above. Format: cell-based, A. baumannii. The settings on record: compound at 5 μM.
The subject of a further series is AB 17978 mcr-1. The series is described as above. Type of series: cell-based, A. baumannii. Conditions: compound at 5 μM.
Series [4] concerns A. baumannii, K. pneumoniae, and Escherichia coli. Put plainly: Earlier finding: suppression of colistin resistance by IMD-0354. Conditions: 5 μM (1.9 μg/mL) IMD-0354. Type of series: cell-based.
Where [5] appears, read: compound at 5 μM, colistin alone 2048 μg/mL.
Setting [6] is: Acinetobacter baumannii, 16 h, standalone, no colistin.

Where two headings read alike, the source gives them in different places. Some results are limits rather than exact numbers.

In general, MIC refers to the lowest concentration found to suppress growth. With `O=C(Nc1cc(Cl)cc(Cl)c1)c1cc(Cl)ccc1O` [Compound 22], the “Colistin MIC fold reduction, AB 4106” value is recorded as 512 fold in series [1] (compound at 1 μM), 1024 fold in series [1] (compound at 3 μM) and 1024 fold in series [1] (setting [5]). Besides, the MIC with AB 4106 [2] (setting [6]) was over 200 µM. Also, the “no measurable toxicity up to” value with 4T1 cells is over 200 µM. The “Time-kill: potentiation of colistin activity” value with AB 4106 [3] and in the series with KP B9 was “significant potentiation of colistin activity” in each case.
Turning to `O=C(Nc1cc(Br)cc(Br)c1)c1cc(Cl)ccc1O` [Compound 23], the “Colistin MIC fold reduction, AB 4106” value in [1] (compound at 1 μM) was found to be 256 fold; in series [1] (compound at 3 μM) it was 1024 fold; in [1] (setting [5]) it was 1024 fold. The “ability to break colistin resistance, KPB9” value in the series with K. pneumoniae B9 (KPB9) is “retained the ability to break colistin resistance”. Moreover, the MIC in the series on AB 4106 [2] (setting [6]) was over 200 µM. Besides, the “Colistin MIC fold reduction, AB 3941” value with AB 3941 is “(512) fold”. The “Colistin MIC fold reduction, AB 3942” value in the series with AB 3942 was “(≥2048) fold”. Moreover, in the series on AB 4112, the “Colistin MIC fold reduction, AB 4112” value was “(1024) fold”. In addition, the “Colistin MIC fold reduction, AB 4119” value with AB 4119 is “(1024) fold”. Besides, the “Colistin MIC fold reduction, AB 17978 mcr-1” value with AB 17978 mcr-1 is “(128) fold”. In addition, the “no measurable toxicity up to” value in the series with 4T1 cells was over 200 µM.
With `O=C(Nc1cc(C(F)(F)F)cc(C(F)(F)F)c1Cl)c1cc(Cl)ccc1O` [Compound 25], the “Colistin MIC fold reduction, AB 4106” value was determined as 512 fold in series [1] (compound at 1 μM), 1024 fold in series [1] (compound at 3 μM) and 2048 fold in series [1] (setting [5]). For the same molecule, the “Colistin MIC against AB 4106” value in series [1] (in presence of compound at 1 μM) was determined as 4 µg/mL; in series [1] (in presence of compound at 3 μM) it was 2 µg/mL; in series [1] (in presence of compound at 5 μM), 1 µg/mL. In addition, the MIC in the series with AB 4106 [2] (standalone, no colistin) worked out at 50 µM. Besides, the “Colistin MIC against AB 3941” value with AB 3941 is 1 µg/mL. Moreover, the “Colistin MIC against AB 3942” value with AB 3942 amounted to 1 µg/mL. Further, the “Colistin MIC against AB 4112” value in the series with AB 4112 was found to be 1 µg/mL. Besides, the “Colistin MIC against AB 4119” value in the series with AB 4119 was 1 µg/mL. Moreover, the “Colistin MIC against AB 17978 mcr-1” value in the series with AB 17978 mcr-1 stood at 0.5 µg/mL. The “toxicity compared to IMD-0354” value in the series with 4T1 cells (4T1 cells, MTT) is recorded as “ca. two-fold more toxic than IMD-0354”. Further, the “CT50 (cytotoxicity)” value with 4T1 cells (4T1 cells, MTT, 18 hours) was 110 µM.
Turning to `O=C(Nc1cc(C(F)(F)F)cc(C(F)(F)F)c1)c1cc(Cl)ccc1O` [IMD-0354, reference compound], the “Colistin MIC fold reduction, AB 4106” value in series [1] (compound at 1 μM) was found to be 256 fold; in series [1] (compound at 3 μM), 512 fold; in series [1] (setting [5]), 1024 fold. The minimum inhibitory concentration (MIC) with AB 4106 [2] (Acinetobacter baumannii, 16 h) was 50 µM. In the series with AB 3941, the “Colistin MIC fold reduction, AB 3941” value is given as “(512) fold”. Further, the “Colistin MIC fold reduction, AB 3942” value in the series on AB 3942 is “(≥2048) fold”. Further, the “Colistin MIC fold reduction, AB 4112” value in the series with AB 4112 was “(1024) fold”. In addition, the “Colistin MIC fold reduction, AB 4119” value with AB 4119 is listed as “(256) fold”. Also, the “Colistin MIC fold reduction, AB 17978 mcr-1” value in the series on AB 17978 mcr-1 is “(128) fold”. In series [4], the “reduction of the MIC of colistin” value is reported as at least 4096 fold.
